From patent US20260022116A1, “IMIDAZOPYRIDINE COMPOUNDS, PREPARATION THEREOF AND THERAPEUTIC USES THEREOF” (SANOFI, priority 2022, published 2026) come the findings set out here.

Like-named read-outs stand apart in the source and are kept apart here.

Experiment [1] concerns the target T1, ERK5 (Homo sapiens, UniProt Q13164).
Target sequence in this assay (Q13164 whole entry): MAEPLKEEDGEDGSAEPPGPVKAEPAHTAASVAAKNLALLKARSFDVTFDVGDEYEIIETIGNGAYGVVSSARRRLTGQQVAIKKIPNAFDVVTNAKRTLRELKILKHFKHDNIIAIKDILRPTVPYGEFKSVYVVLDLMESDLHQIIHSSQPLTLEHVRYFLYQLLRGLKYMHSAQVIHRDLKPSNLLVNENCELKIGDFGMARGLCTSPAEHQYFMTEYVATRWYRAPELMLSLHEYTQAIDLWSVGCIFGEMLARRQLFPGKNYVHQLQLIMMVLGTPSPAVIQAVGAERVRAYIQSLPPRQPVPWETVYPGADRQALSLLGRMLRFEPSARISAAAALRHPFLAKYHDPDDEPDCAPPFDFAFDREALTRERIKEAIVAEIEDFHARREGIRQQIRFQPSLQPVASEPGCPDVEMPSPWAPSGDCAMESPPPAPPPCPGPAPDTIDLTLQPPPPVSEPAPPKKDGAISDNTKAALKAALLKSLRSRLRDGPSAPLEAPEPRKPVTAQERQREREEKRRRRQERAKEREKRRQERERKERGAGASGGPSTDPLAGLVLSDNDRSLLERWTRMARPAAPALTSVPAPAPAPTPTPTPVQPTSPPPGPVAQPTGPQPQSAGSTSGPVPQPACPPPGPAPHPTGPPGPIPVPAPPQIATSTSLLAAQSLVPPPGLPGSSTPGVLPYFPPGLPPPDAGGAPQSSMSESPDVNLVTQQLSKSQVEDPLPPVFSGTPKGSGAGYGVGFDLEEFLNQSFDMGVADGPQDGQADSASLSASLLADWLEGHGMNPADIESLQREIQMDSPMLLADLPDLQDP
Method: (§1) Two assays were performed to assess the ERK5 inhibitory activity of compounds of the Examples, a cell-based assay and a cell-free biochemical assay.
(§2) The renal cancer cell line SN12C was transduced by a lentivirus pGreenFire1 MEF2 EF1 Neo (ref TR030VA-N) from SBI using standard infection protocol. pGreenFire1 MEF2 EF1 Neo allows the expression of luciferase gene under the control of minimal promoter with MEF2 transcriptional response elements. Cells harboring the reporter construct were selected by geneticin treatment. The selected cells were then transposed by a piggyback based plasmid pCM4007 allowing the expression of constitutively activated MEK5DD under control of TREG3 promoter, a doxycycline regulated promoter. Transposed cells were selected by puromycin treatment. Upon doxycycline treatment (1 μg/ml) MEK5DD was expressed. MEK5DD activates ERK5 that phosphorylates MEF2C protein. Activated MEF2C protein can bind to its transcriptional response elements. Then the luciferase is expressed. In a 96-well plate (96F nuncleon ref137101 thermofisher), 50,000 cells were inoculated in 142.5 μl of RPMI medium containing 10% fetal calf serum, 1% glutamine, and 1 μg/ml doxycycline. […] The luciferase activity was measured using the Kit Bright Glo Luminescent Cell Assay Cat E2610 (Promega) according to the manufacturer's protocol. Luminescence was determined using 0.2 second reading/well using a Tecan SPARK. IC50 values were calculated using XLFIT5 for Microsoft Excel using method 205.
Experiment [2] addresses T1, ERK5. As to the kind of experiment: biochemical.
Target sequence in this assay (Q13164 55-347 limits assumed): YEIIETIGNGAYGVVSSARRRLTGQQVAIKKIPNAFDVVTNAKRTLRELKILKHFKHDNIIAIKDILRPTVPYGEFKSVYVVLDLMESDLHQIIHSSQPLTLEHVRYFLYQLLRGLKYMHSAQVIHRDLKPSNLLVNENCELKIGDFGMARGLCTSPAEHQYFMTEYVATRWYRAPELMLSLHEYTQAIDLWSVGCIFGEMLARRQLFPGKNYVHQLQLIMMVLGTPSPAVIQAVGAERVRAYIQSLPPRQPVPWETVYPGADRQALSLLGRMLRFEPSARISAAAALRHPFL
Method: as §1
(§3) An assay was performed to measure the capacity of each compound to inhibit ERK5 enzymatic activity. Compound potency was evaluated by Time-Resolved Forster Resonance Energy Transfer (FRET system). […] A mixture of 1 mM ATP and 1 μM biotinylated synthetic peptide was added (Biosyntan GmbH). This synthetic peptide represents amino acids 30-52 of Eukaryotic translation initiation factor 4E-binding protein 1 (see, e.g., the sequence under accession No. NP_004086.1) biotinylated at the N-terminus.
For experiment [3], the target named is T1, ERK5. This is another data set of the same source.
Target sequence in this assay (Q13164 55-347 limits assumed): as above
Method: as §1, §3
In experiment [4] the target is T1, ERK5. As to the kind of experiment: cell-based.
Target sequence in this assay (Q13164 whole entry): as the sequence (Q13164 whole entry) above
Method: as §1, §2

One may read the IC50 as the concentration needed to halve the response being measured. Low readings indicate greater potency, high ones weaker potency. As to `COC12CC(c3nc4c(C5CCN(C(=O)c6ccc(OC(F)(F)F)cc6)CC5)c(F)cnc4[nH]3)(C1)C2` [Example 426, [4-[6-fluoro-2-(3-methoxy-1-bicyclo[1.1.1]pentanyl)-3H-imidazo[4,5-b]pyridin-7-yl]-1-piperidyl]-[4-(trifluoromethoxy)phenyl]methanone], the half-inhibitory concentration (IC50) against ERK5 [1] came out at 10 nM; at ERK5 [2], 69 nM.

On to `COC12CC(c3nc4c(C5CCN(C(=O)c6ccc(OC(F)(F)F)cc6N)CC5)c(F)cnc4[nH]3)(C1)C2` [Example 428, [2-amino-4-(trifluoromethoxy)phenyl]-[4-[6-fluoro-2-(3-methoxy-1-bicyclo[1.1.1]pentanyl)-3H-imidazo[4,5-b]pyridin-7-yl]-1-piperidyl]methanone], for which the figures for the IC50 against ERK5 [1] and on ERK5 [2] were 5 nM and 28 nM, respectively.

Regarding `CN1CCC(c2nc3c(C4CCN(C(=O)c5ccc(OC(F)(F)F)cc5)CC4)ccnc3[nH]2)C1` (single isomer, unassigned) [Example 25, [4-[2-(1-Methylpyrrolidin-3-yl)-3H-imidazo[4,5-b]pyridin-7-yl]-1-piperidyl]-[4-(trifluoromethoxy)phenyl]methanone], the values for the half-inhibitory concentration (IC50) at ERK5 [3] and against ERK5 [4] were 148 nM and 179 nM, respectively.

In the case of `O=C(C1CCN(c2ccccc2Cl)C1)N1CCC(c2ccnc3[nH]c(C4CCOCC4)nc23)CC1` (stereo not shown) [Example 118, [1-(2-chlorophenyl)pyrrolidin-3-yl]-[4-(2-tetrahydropyran-4-yl-3H-imidazo[4,5-b]pyridin-7-yl)-1-piperidyl]methanone], the IC50 against ERK5 [2] is 18000 nM; against ERK5 [4], greater than 10000 nM.

As for `Nc1cc(S(F)(F)(F)(F)F)ccc1C(=O)N1CCC(c2ccnc3[nH]c(C4CCOC4)nc23)CC1` (single isomer, unassigned) [Example 308, [2-amino-4-(pentafluoro-λ^6-sulfanyl)phenyl]-[4-[2-[tetrahydrofuran-3-yl]-3H-imidazo[4,5-b]pyridin-7-yl]-1-piperidyl]methanone], the values for the IC50 against ERK5 [2] and on ERK5 [4] were 97 nM and 99 nM, respectively.
